Measured values published in patent publication US12215106B2, “Pharmaceutical compounds and therapeutic methods” (RUTGERS, THE STATE UNIVERSITY OF NEW JERSEY, priority 2018, dated 2025).
Counter-ions that a name gives are not always drawn. Like-named read-outs stand apart in the source and are kept apart here.

Legend:
[1] = system: glioblastoma patient derived spheres; test: MTT assay, cell viability of patient derived GBM spheres; type: cell-based; conditions: Homo sapiens
Text: To generate primary patient-derived GBM models for testing small molecule inhibitors, fresh primary tissues were received from patients undergoing surgical resection of WHO grade IV gliomas at Robert Wood Johnson University Hospital (RWJUH) under an approved IRB protocol. De-identified primary human GBM samples were delivered to the laboratory. Cells were obtained through mechanical dissociation of the tumor tissue using a blade and plated in DMEM/F12 medium (Gibco) in the presence of B-27 Supplement (Gibco, #17504-044), 20 ng/ml of human recombinant EGF (Gibco, #PHG0311L) and human recombinant FGF (Peprotech, #AF-100-18B). The following day, the culture was collected, incubated with Accutase (Gibco, #A11105-01) at 37° C. and passed through a 26G×⅜ needle (BD Precision Glide, #305110) to obtain a single cell suspension and re-plated in the same supplemented medium. Cells were cultured at low (5-6) passages in serum-free sphere 3D culture with mitogens that preserve the clonogenic stemness phenotype. […] different primary GBM cells (GBM #46, GBM #50, and GBM #76) were tested for cell viability after treatment with the inhibitors. Cell viability was measured using MTT assay. Briefly, one thousand cells per well were seeded in 96-well plates and exposed to drug in a total of 200 uL media. After 72 hours, 50 uL of stock concentration of 2.5 mg/mL 3-(4,5-dimethylthiazol-2-yl)-2,5-diphenyltetrazolium bromide (MTT) (Sigma, #M2128) dissolved in PBS was added to wells and incubated at 37° C. for 4 hours; read in a […] plate reader at 570 nm and compared to DMSO and untreated cells. The IC50 (defined as the concentration at which 50% of the cells were viable) was determined from the curve.
Novel compounds were synthesized and examined for their effectiveness on inhibiting the growth of patient derived GBM sphere cells that are more enriched in cancer stem-like cells (CSCs). An IC50 was established by measuring cell viability using a MTT assay when compared to vehicle control (DMSO) (FIG. 1-6).

[2] = system: Caco-2 cells; test: Bi-directional Caco-2 transport assay; type: in vitro ADME; conditions: for P-gp substrate: Caco-2; for Efflux Ratio (B-A/A-B) / Papp (A-B) / Papp (B-A): human, Caco-2, 90 min, 5 μM; for Papp (A-B) / Papp (B-A): pH 7.4
Description: The objective of the study is to evaluate test compounds as substrates for efflux transporter using Caco-2 cell line. To assess the functionality of P-glycoprotein (P-gp), loperamide was run as a positive control (Apical and basolateral HBSS pH 7.4).
5 mM DMSO stock of test compounds and loperamide was diluted 1000-folds in HBSS having 0.1% DMSO to prepare concentrations of 5 μM.
Caco-2 cells were grown in DMEM (20% FBS) until 85-90% confluence. After attaining required confluence, cells were trypsinized and seeded into 24 well millcell plates at a density of 0.6×10^5 cells/insert. The plates were maintained for 21 days at 37° C. in CO2 incubator with change of medium every alternative day. Monolayer integrity was monitored by measuring Trans-epithelial electrical resistance (TEER) from day 15.
Caco-2 cell monolayer was washed twice with HBSS and incubated for 40 min in CO2 incubator. TEER values were measured and wells showing TEER values above 230 ohms·cm^2 were taken for experiments. The study was performed in loperamide and test compounds by adding 400 μL of loperamide prepared in HBSS in apical (A-B transport) followed by addition of 800 μL of HBSS on basal side and for B-A transport 800 μL of loperamide prepared in HBSS was dosed in basal followed by addition of 400 μL HBSS on apical side. At selected time points (0, 15, 30, 60 and 90 mins) an aliquot of 50 μL was collected from the receiver compartment for determination of test compound concentrations. The volume withdrawn was replaced immediately with HBSS buffer. TEER was measured at the end to the experiment to confirm any damage of monolayer while performing experiment. Those wells with TEER not meeting the criteria were excluded from the study.
A 50 μL of test compound samples collected at respective time points and submitted for LC-MS/MS analysis.
The apparent permeability (Papp) (A−B & B−A) of test compounds and positive control was calculated using the following formula: Papp=dQ/dt/A·Co where, dQ/dt=linear slope of test compound concentration in receptor chamber with time (0, 15, 30, 60 and 90 min) after correcting for dilution; A=area of the filter (0.7 cm^2); and Co=initial concentration of compound in the donor compartment.
Efflux ratio (RE) was calculated using the following equation: RE=PB/A/PA/B where PB/A and PA/B represent the apparent permeability of test compound from the basal to apical and apical to basal side of cell monolayer.
Recovery represents: (amount of the compound recovered from donor at end of incubation+cumulative amount of compound in acceptor at end of incubation+amount of the compound in cell lysate or assay well)/amount of compound in donor solution at time zero*100
Compounds are classified based on Papp values as follows:
A compound having efflux ratio of >2 is considered as having potential as a P-gp substrate.

[3] = in vitro; conditions: pH 7.4; for % Remaining at 60 min (Buffer) / % Remaining at 60 min (+NADPH) / % Remaining at 60 min (−NADPH) / Percentage turnover in MLM (percent remaining), 60 min: 1 h; for % Remaining at 60 min (Buffer) / CLh, int / Percentage turnover in MLM (percent remaining), 0 min / Percentage turnover in MLM (percent remaining), 5 min / Percentage turnover in MLM (percent remaining), 15 min / Percentage turnover in MLM (percent remaining), 30 min / % Remaining at 60 min (+NADPH) / % Remaining at 60 min (−NADPH) / Percentage turnover in MLM (percent remaining), 60 min / Metabolic stability in liver microsomes, compound remaining: 1 μM; for CLh, int / Percentage turnover in MLM (percent remaining), 0 min / Percentage turnover in MLM (percent remaining), 5 min / Percentage turnover in MLM (percent remaining), 15 min / Percentage turnover in MLM (percent remaining), 30 min / % Remaining at 60 min (+NADPH) / % Remaining at 60 min (−NADPH) / Percentage turnover in MLM (percent remaining), 60 min / Metabolic stability in liver microsomes, compound remaining / half-life at 1 μM: mouse; for Percentage turnover in MLM (percent remaining), 0 min / Percentage turnover in MLM (percent remaining), 5 min / Percentage turnover in MLM (percent remaining), 15 min / Percentage turnover in MLM (percent remaining), 30 min / % Remaining at 60 min (+NADPH) / % Remaining at 60 min (−NADPH) / Percentage turnover in MLM (percent remaining), 60 min / Metabolic stability in liver microsomes, compound remaining / half-life at 1 μM: microsomes; for Percentage turnover in MLM (percent remaining), 0 min: 0 h; for Percentage turnover in MLM (percent remaining), 15 min: 0.25 h; for Percentage turnover in MLM (percent remaining), 30 min: 0.5 h; for Metabolic stability in liver microsomes, compound remaining: 60 min
Description: The objective of the study was to evaluate the metabolic stability of test compounds in liver microsomes from mice (MLM). This was accomplished by incubating test compounds with microsomes and monitoring disappearance with time using LCMS/MS. Imipramine in MLM was run as positive control.
Potassium phosphate buffer (Kphos) was prepared by adding 0.647 g potassium phosphate monobasic (KH2PO4) and 3.527 g potassium phosphate dibasic (K2HPO4) to 400 mL of Milli-Q water. pH of the buffer was adjusted to 7.4 and volume was made up to 500 mL.
Stock solutions of test compounds were prepared in DMSO at a concentration of 1 mM.
From the above mix, 70 μL was added to individual wells of 96 well reaction plates and pre-incubated at 37° C. for 5 min. […] Reactions without NADPH and buffer controls (minus NADPH) at 0 minutes and 60 minutes were also incubated to rule out non-NADPH metabolism or chemical instability in the incubation buffer. All reactions were terminated using 100 μL of ice-cold acetonitrile containing internal standard (glipizide) at 0, 5, 15, 30 and 60 minutes.
Samples were monitored for parent compounds disappearance in MRM mode using LC-MS/MS.
The percent remaining of test compounds and positive control in each sample was determined by considering peak area ratio in the 0 minute sample as 100%.
In vitro intrinsic clearance (CL'int) (units in mL/min/kg) was also calculated.

[4] = 72 h, read-out: IC50, antitumor activity against glioblastoma patient derived spheres
[5] = read-out: Potency in patient derived GBM spheres

SMILES	IC50 [1, 4] [nM]	IC50 [1, 5] [nM]	P-gp substrate [2]	Efflux Ratio (B-A/A-B) [2]	% Remaining at 60 min (Buffer) [3] [%]	CLh, int [3] [mL/min/kg]	Percentage turnover in MLM (percent remaining), 0 min [3] [%]	Percentage turnover in MLM (percent remaining), 5 min [3] [%]	Percentage turnover in MLM (percent remaining), 15 min [3] [%]	Percentage turnover in MLM (percent remaining), 30 min [3] [%]	% Remaining at 60 min (+NADPH) [3] [%]	% Remaining at 60 min (−NADPH) [3] [%]	Percentage turnover in MLM (percent remaining), 60 min [3] [%]	Metabolic stability in liver microsomes, compound remaining [3] [%]	half-life at 1 μM [3] [min]	Papp (A-B) [2]	Papp (B-A) [2]	IC50 ([1]; MTT, 72 hours, figure legends, read-out: IC50, antitumor activity against glioblastoma patient derived spheres) [nM]	IC50 ([1]; summary data, read-out: Potency in patient derived GBM spheres) [nM]
[2H]C1([2H])Oc2ccc(Nc3nc(-c4c(C)nc5ccccn45)cs3)cc2O1 [Compound 17, N-(benzo[d][1,3]dioxol-5-yl-2,2-d2)-4-(2-methylimidazo[1,2-c]pyridin-3-yl)thiazol-2-amine hydrochloride]	20	10	not P-gp substrate	1.3	101	953	100	91	56	20	3	81	3	< 50	12	–	–	–	–
[2H]C([2H])([2H])Oc1ccc(Nc2nc(-c3c(C)nc4ccccn34)cs2)cc1 [Compound 15, N-(4-(methoxy-d3)phenyl)-4-(2-methylimidazo[1,2-c]pyridin-3-yl)thiazol-2-amine hydrochloride]	7	1000	–	–	85	215	100	100	98	67	48	93	48	< 50	52	0.0 ± 0.0 10^−6 cm/sec	0.0 ± 0.0 10^−6 cm/sec	–	–
COc1c(F)cc(Nc2nc(-c3c(C)nc4ccccn34)cs2)cc1F [Compound 14, hydrochloride]	–	–	–	–	66	550	100	88	62	36	13	33	13	< 50	20	0.0 ± 0.0 10^−6 cm/sec	0.0 ± 0.0 10^−6 cm/sec	7	10
Cc1nc2ccccn2c1-c1csc(Nc2ccc3c(c2)OC(F)(F)O3)n1 [Compound 16, N-(2,2-difluorobenzo[d][1,3]dioxol-5-yl)-4-(2-methylimidazo[1,2-a]pyridin-3-yl)thiazol-2-amine hydrochloride]	200	10	not P-gp substrate	0.9	87	759	100	83	58	35	6	62	6	< 50	15	–	–	–	–
